This is an account of results in patent US12157746B2, “Tetrahydro-1H-pyrazino[2,1-a]isoindolylquinoline compounds for the treatment of autoimmune disease” (F. HOFFMANN-LA ROCHE AG, priority 2018, dated 2024).

What is called IC20 is the point of the concentration-response curve where the effect stands at 20%.

In one series the target is T1, hERG K+ channel (Homo sapiens, UniProt Q12809).
T1 construct: expressed in transfected cells; host or cells: CHO (Chinese hamster ovary) cells, CHOhERG
The series can be described thus: hERG channel inhibition assay. It is filed as cell-based. The note with it: patch-clamp (voltage-clamp, whole-cell); for IC50: CHO cells expressing hERG; for IC20: human, CHO cells stably expressing hERG. As for the experimental part: hERG Channel Inhibition Assay
The hERG K^+ channels were cloned in humans and stably expressed in a CHO (Chinese hamster ovary) cell line. CHOhERG cells were used for patch-clamp (voltage-clamp, whole-cell) experiments. Cells were stimulated by a voltage pattern to activate hERG channels and conduct IKhERG currents (rapid delayed outward rectifier potassium current of the hERG channel). After the cells were stabilized for a few minutes, the amplitude and kinetics of IKhERG were recorded at a stimulation frequency of 0.1 Hz (6 bpm). Thereafter, the test compound was added to the preparation at increasing concentrations. For each concentration, an attempt was made to reach a steady-state effect, usually, this was achieved within 3-10 min at which time the next highest concentration was applied. The amplitude and kinetics of IKhERG are recorded in each concentration of the drug which were compared to the control values (taken as 100%). (references: Redfem W S, Carlsson L, Davis A S, Lynch W G, MacKenzie I, Palethorpe S, Siegl P K, Strang I, Sullivan A T, Wallis R, Camm A J, Hammond T G. 2003; Relationships between preclinical cardiac electrophysiology, clinical QT interval prolongation and torsade de pointes for a broad range of drugs: evidence for a provisional safety margin in drug development. Cardiovasc. Res. 58:32-45, Sanguinetti M C, Tristani-Firouzi M. 2006; hERG potassium channels and cardiac arrhythmia. Nature 440:463-469, Webster R, Leishman D, Walker D. 2002; Towards a drug concentration effect relationship for QT prolongation and torsades de pointes. Curr. Opin. Drug Discov. Devel. 5:116-26).
For orientation: The hERG channel carries a current that helps repolarise heart muscle cells.

The next series has as its target T2, human TLR8 (Homo sapiens, UniProt Q9NR97).
T2 sequence (Q9NR97 27-1041): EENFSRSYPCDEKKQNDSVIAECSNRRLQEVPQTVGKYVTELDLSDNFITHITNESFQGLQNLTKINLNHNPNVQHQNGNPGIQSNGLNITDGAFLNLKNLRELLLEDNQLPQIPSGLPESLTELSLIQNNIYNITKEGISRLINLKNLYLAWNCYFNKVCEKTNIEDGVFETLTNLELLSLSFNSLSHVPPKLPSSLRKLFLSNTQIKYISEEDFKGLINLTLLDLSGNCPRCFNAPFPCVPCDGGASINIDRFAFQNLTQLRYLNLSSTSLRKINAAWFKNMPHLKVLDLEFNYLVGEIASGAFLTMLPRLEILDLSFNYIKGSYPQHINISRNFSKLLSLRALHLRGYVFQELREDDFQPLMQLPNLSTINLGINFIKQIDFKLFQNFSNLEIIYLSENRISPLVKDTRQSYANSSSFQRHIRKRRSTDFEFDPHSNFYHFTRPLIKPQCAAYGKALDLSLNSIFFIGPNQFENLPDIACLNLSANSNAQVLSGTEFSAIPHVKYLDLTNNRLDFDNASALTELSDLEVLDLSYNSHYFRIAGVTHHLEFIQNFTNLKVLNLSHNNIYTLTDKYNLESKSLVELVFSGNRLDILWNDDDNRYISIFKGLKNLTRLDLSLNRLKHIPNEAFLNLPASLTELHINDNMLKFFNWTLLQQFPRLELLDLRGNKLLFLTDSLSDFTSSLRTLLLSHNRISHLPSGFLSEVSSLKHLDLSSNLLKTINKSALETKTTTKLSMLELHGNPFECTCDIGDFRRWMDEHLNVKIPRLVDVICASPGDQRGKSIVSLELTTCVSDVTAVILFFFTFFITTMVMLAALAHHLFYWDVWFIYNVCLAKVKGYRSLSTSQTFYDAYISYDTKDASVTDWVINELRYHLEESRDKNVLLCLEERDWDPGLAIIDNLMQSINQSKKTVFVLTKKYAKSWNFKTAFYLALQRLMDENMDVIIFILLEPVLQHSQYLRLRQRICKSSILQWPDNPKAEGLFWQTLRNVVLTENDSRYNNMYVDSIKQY
Description: HEK293-Blue-hTLR-8 cells assay. Format: cell-based. The following applies: HEK293-Blue-hTLR8 cells, R848 stimulation, 20 hrs, SEAP reporter; read-out: HEK/hTLR8 IC50. Put shortly: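 Antagonism read out in HEK293-Blue-hTLR8 cells carrying an NF-κB/AP-1-driven SEAP reporter, stimulated with R848 (10 μL of 60 uM stock added) alongside serially diluted compound (1% DMSO), 20 h at 37° C. Supernatant SEAP measured with QUANTI-Blue after 2 h at 37° C, absorbance at 620-655 nm.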

Structures are written as SMILES.

T1 sequence (Q12809 whole entry): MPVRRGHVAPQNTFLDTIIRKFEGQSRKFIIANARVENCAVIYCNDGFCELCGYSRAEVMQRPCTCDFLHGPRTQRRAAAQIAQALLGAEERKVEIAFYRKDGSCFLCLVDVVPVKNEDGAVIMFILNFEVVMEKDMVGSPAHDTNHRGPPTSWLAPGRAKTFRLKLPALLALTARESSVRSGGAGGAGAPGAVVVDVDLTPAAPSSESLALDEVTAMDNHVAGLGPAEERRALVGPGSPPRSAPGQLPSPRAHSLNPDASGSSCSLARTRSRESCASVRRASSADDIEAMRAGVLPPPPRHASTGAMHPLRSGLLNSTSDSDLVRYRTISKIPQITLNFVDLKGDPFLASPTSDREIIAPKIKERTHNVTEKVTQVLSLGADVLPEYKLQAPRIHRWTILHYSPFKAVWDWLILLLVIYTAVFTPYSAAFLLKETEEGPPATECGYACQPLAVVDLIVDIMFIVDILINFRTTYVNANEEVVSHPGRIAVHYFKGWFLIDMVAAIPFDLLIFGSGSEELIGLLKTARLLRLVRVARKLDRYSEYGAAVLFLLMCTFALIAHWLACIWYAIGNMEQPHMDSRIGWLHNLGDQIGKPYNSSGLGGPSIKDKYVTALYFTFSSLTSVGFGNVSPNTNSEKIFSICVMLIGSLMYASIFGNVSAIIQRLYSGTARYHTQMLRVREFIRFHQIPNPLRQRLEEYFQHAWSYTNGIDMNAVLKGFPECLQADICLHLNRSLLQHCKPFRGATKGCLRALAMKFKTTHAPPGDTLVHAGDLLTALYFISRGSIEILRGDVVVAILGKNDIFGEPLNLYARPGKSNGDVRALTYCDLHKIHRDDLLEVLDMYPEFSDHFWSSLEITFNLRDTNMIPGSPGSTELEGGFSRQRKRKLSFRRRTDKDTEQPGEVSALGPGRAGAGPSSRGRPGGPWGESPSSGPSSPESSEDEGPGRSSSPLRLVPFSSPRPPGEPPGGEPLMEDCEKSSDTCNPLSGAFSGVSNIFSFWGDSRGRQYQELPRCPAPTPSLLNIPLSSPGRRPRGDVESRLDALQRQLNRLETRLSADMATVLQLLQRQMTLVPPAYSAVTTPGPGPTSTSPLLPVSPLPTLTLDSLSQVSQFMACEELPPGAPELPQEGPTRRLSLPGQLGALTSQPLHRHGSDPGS

In the case of `CN[C@@H]1CN(c2ccc3c(c2)CN2[C@H](C)CN(c4ccc(C#N)c5ncccc45)C[C@H]32)C[C@H]1O` [Example 43, 5-[(4R,10bS)-4-methyl-8-[(3R,4R)-3-hydroxy-4-(methylamino)pyrrolidin-1-yl]-3,4,6,10b-tetrahydro-1H-pyrazino[2,1-a]isoindol-2-yl]quinoline-8-carbonitrile], the IC50 is above 20 µM on hERG K+ channel and below 0.0032 µM at human TLR8. This molecule also had an IC20 at hERG K+ channel of 5.2 µM.

On hERG K+ channel, `C[C@@H]1CN(c2ccc(C#N)c3ncccc23)C[C@@H]2c3ccc(N4CC5(CNCCO5)C4)cc3CN12` [Example 35, 5-[(4R,10bS)-4-methyl-8-(5-oxa-2,8-diazaspiro[3.5]nonan-2-yl)-3,4,6,10b-tetrahydro-1H-pyrazino[2,1-a]isoindol-2-yl]quinoline-8-carbonitrile] had an IC50 above 20 µM and an IC20 above 10 µM. Also, the IC50 at human TLR8 was below 0.0032 µM.

On hERG K+ channel, `C[C@@H]1CN(c2ccc(C#N)c3ncccc23)C[C@@H]2c3ccc(N4CCOCC(N)C4)cc3CN12` (stereo partly drawn) [Example 54, 5-[(4R,10bS)-8-(6-amino-1,4-oxazepan-4-yl)-4-methyl-3,4,6,10b-tetrahydro-1H-pyrazino[2,1-a]isoindol-2-yl]quinoline-8-carbonitrile] returned an IC50 above 20 µM and an IC20 above 10 µM. On human TLR8, the IC50 is below 0.0032 µM.

In the case of `C[C@@H]1CN(c2ccc(C#N)c3ncccc23)C[C@@H]2c3ccc(NC4CNCCOC4)cc3CN12` (stereo partly drawn) [Example 56, 5-[(4R,10bS)-4-methyl-8-(1,4-oxazepan-6-ylamino)-3,4,6,10b-tetrahydro-1H-pyrazino[2,1-a]isoindol-2-yl]quinoline-8-carbonitrile], the IC50 against hERG K+ channel was above 20 µM; on human TLR8 it was below 0.0032 µM. Moreover, on hERG K+ channel, the IC20 is above 10 µM.

Consider `C[C@@H]1CN(c2ccc(C#N)c3ncccc23)C[C@@H]2c3ccc(N4CCNC[C@H](O)C4)cc3CN12` [Example 53A, 5-[(4R,10bS)-8-[(6S)-6-hydroxy-1,4-diazepan-1-yl]-4-methyl-3,4,6,10b-tetrahydro-1H-pyrazino[2,1-a]isoindol-2-yl]quinoline-8-carbonitrile], for which the IC50 is above 20 µM on hERG K+ channel and below 0.0032 µM on human TLR8. For the same molecule, at hERG K+ channel, the IC20 is 6.6 µM.

Consider `C[C@@H]1CN(c2ccc(C#N)c3ncccc23)C[C@@H]2c3ccc(N4CCN[C@H](CO)C4)cc3CN12` [Example 12, 5-[(4R,10bS)-8-[(3S)-3-(hydroxymethyl)piperazin-1-yl]-4-methyl-3,4,6,10b-tetrahydro-1H-pyrazino[2,1-a]isoindol-2-yl]quinoline-8-carbonitrile], for which the IC50 was above 20 µM on hERG K+ channel and below 0.0032 µM at human TLR8. Further, the IC20 against hERG K+ channel is above 10 µM.

For `C[C@@H]1CN(c2ccc(C#N)c3ncccc23)C[C@@H]2c3ccc(N4CCNCC(O)C4)cc3CN12` (stereo partly drawn) [Example 15, 5-[(4R,10bS)-8-(6-hydroxy-1,4-diazepan-1-yl)-4-methyl-3,4,6,10b-tetrahydro-1H-pyrazino[2,1-a]isoindol-2-yl]quinoline-8-carbonitrile], on hERG K+ channel, the IC50 was above 20 µM and the IC20 was above 10 µM. For the same molecule, the IC50 on human TLR8 is below 0.0032 µM.

At hERG K+ channel, `COC12CNCC1CN(c1ccc3c(c1)CN1[C@H](C)CN(c4ccc(C#N)c5ncccc45)C[C@H]31)C2` (stereo partly drawn) [Example 41, 5-[(4R,10bS)-8-(3a-methoxy-1,2,3,4,6,6a-hexahydropyrrolo[3,4-c]pyrrol-5-yl)-4-methyl-3,4,6,10b-tetrahydro-1H-pyrazino[2,1-a]isoindol-2-yl]quinoline-8-carbonitrile] showed an IC50 above 20 µM and a concentration for an effect of 20% (IC20) above 10 µM. For the same molecule, the IC50 at human TLR8 is below 0.0032 µM.

At hERG K+ channel, `CO[C@H]1CN(c2ccc3c(c2)CN2[C@H](C)CN(c4ccc(C#N)c5ncccc45)C[C@H]32)C[C@@H]1N` (relative stereo) [Example 16, 5-[(4R,10bS)-8-[trans-3-amino-4-methoxy-pyrrolidin-1-yl]-4-methyl-3,4,6,10b-tetrahydro-1H-pyrazino[2,1-a]isoindol-2-yl]quinoline-8-carbonitrile] displayed an IC50 above 20 µM and an IC20 above 10 µM. For the same molecule, on human TLR8, the IC50 is below 0.0032 µM.

`CO[C@@H]1CN(c2ccc3c(c2)CN2[C@H](C)CN(c4ccc(C#N)n5nccc45)C[C@H]32)C[C@H]1N` [Example 94, 4-[(4R,10bS)-8-[(3R,4R)-3-amino-4-methoxy-pyrrolidin-1-yl]-4-methyl-3,4,6,10b-tetrahydro-1H-pyrazino[2,1-a]isoindol-2-yl]pyrazolo[1,5-a]pyridine-7-carbonitrile]: on hERG K+ channel, the IC50 is above 20 µM and the IC20 is above 10 µM. Also, the IC50 at human TLR8 worked out at 0.0056 µM.

On hERG K+ channel, `C[C@@H]1CN(c2ccc(C#N)c3ncccc23)C[C@@H]2c3ccc(NC4CNC4)cc3CN12` [Example 28, 5-[(4R,10S)-8-(azetidin-3-ylamino)-4-methyl-3,4,6,10b-tetrahydro-1H-pyrazino[2,1-a]isoindol-2-yl]quinoline-8-carbonitrile] yielded an IC50 above 20 µM and an IC20 above 10 µM. Further, at human TLR8, the IC50 was below 0.0032 µM.

As for `C[C@@H]1CN(c2ccc(C#N)c3ncccc23)CC2c3ccc(N4C[C@H](N)[C@@H](O)C4)cc3CN21` (relative stereo) [Example 21, 5-[(4R,10bS)-8-[trans-3-amino-4-hydroxy-pyrrolidin-1-yl]-4-methyl-3,4,6,10b-tetrahydro-1H-pyrazino[2,1-a]isoindol-2-yl]quinoline-8-carbonitrile], the IC50 against hERG K+ channel is above 20 µM; on human TLR8, below 0.0032 µM. This molecule also gave an IC20 on hERG K+ channel above 10 µM.

On hERG K+ channel, `C[C@@H]1CN(c2ccc(C#N)c3ncccc23)C[C@@H]2c3ccc(N4CC5CNCC(C4)O5)cc3CN12` [Example 14, 5-[(4R,10bS)-4-methyl-8-(9-oxa-3,7-diazabicyclo[3.3.1]nonan-3-yl)-3,4,6,10b-tetrahydro-1H-pyrazino[2,1-a]isoindol-2-yl]quinoline-8-carbonitrile] registered an IC50 above 20 µM and an IC20 above 10 µM. Moreover, at human TLR8, the IC50 was below 0.0032 µM.

In the case of `C[C@@H]1CN(c2ccc(C#N)c3ncccc23)C[C@@H]2c3ccc(N4CCOC[C@@H](N)C4)cc3CN12` [Example 54B, 5-[(4R,10bS)-8-[(6S)-6-amino-1,4-oxazepan-4-yl]-4-methyl-3,4,6,10b-tetrahydro-1H-pyrazino[2,1-a]isoindol-2-yl]quinoline-8-carbonitrile], the IC50 at hERG K+ channel was above 20 µM; on human TLR8, below 0.0032 µM. The same molecule came in with an IC20 on hERG K+ channel above 10 µM.

Turning to `C[C@@H]1CN(c2ccc(C#N)c3ncccc23)C[C@@H]2c3ccc(N4CC(N)C4)cc3CN12` [Example 22, 5-[(4R,10bS)-8-(3-aminoazetidin-1-yl)-4-methyl-3,4,6,10b-tetrahydro-1H-pyrazino[2,1-a]isoindol-2-yl]quinoline-8-carbonitrile], the IC50 was above 20 µM at hERG K+ channel and below 0.0032 µM at human TLR8. At hERG K+ channel, this molecule gave an IC20 of 5 µM.
